ChEMBL document CHEMBL3232855, “The discovery of N-((2H-tetrazol-5-yl)methyl)-4-((R)-1-((5r,8R)-8-(tert-butyl)-3-(3,5-dichlorophenyl)-2-oxo-1,4-diazaspiro[4.5]dec-3-en-1-yl)-4,4-dimethylpentyl)benzamide (SCH 900822): a potent and selective glucagon receptor antagonist” (J Med Chem, 2014)
Active and inactive are the calls of the source. The calls are words filed in the database; no cut-off is given here.

Assays:
Rhesus monkey = experiment: Dose-normalized AUC in monkey at 3 mg/kg, po; format: ADME, organism-based, Macaca mulatta; set-up: dose 3 mg/kg, route oral; details: in vivo
[1] = Volume of distribution at steady state in monkey at 3 mg/kg, iv; format: ADME, organism-based, Macaca mulatta; set-up: dose 3 mg/kg, route intravenous; details: rhesus monkey, in vivo, read-out: Vdss
[2] = Half life in rat at 3 mg/kg, iv; format: ADME, organism-based; set-up: dose 3 mg/kg, route intravenous; details: in vivo
[3] = Half life in mouse at 3 mg/kg, iv; format: ADME, organism-based; set-up: dose 3 mg/kg, route intravenous; details: in vivo
[4] = Oral bioavailability in mouse at 3 mg/kg; format: ADME, organism-based; details: in vivo
Mus musculus [5] = experiment: Antidiabetic activity in diet-induced obese ICR mouse model assessed as inhibition of glucagon-induced glucose excursion at 10 to 30 mg/kg, po bid measured for 60 mins by glucometer; format: functional, organism-based
[6] = Plasma concentration in streptozotocin-induced ICR mouse type-2 diabetic model at 10 mg/kg, po measured at 8 hrs by HPLC/MS/MS analysis; format: ADME, organism-based; set-up: dose 10 mg/kg, route oral
[7] = Oral bioavailability in monkey at 3 mg/kg; format: ADME, organism-based, Macaca mulatta; details: rhesus monkey, in vivo
[8] = target: Glucagon-like peptide 1 receptor (Homo sapiens, UniProt P43220); experiment: Antagonist activity at human GLP-1R expressed in CHO cells assessed as inhibition of GLP-1-stimulated cAMP production preincubated for 30 mins followed by GLP-1 induction measured after 45 mins by LANCE assay; format: functional, cell-based
Sequence of Glucagon-like peptide 1 receptor (P43220 whole entry): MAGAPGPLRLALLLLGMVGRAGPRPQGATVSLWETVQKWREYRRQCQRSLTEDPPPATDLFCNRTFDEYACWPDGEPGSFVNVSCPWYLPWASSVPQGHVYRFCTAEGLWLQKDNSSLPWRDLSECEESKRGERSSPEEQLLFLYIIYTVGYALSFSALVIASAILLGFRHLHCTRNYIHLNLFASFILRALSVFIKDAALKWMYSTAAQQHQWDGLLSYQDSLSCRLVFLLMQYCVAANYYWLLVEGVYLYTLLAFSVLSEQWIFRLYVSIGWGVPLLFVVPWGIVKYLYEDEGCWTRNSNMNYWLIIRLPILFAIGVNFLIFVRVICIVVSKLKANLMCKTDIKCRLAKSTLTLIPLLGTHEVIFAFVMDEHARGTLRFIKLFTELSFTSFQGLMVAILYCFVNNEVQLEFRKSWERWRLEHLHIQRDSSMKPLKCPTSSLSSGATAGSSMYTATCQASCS

[9] = Plasma clearance in dog at 1 mg/kg, iv; format: ADME, organism-based, Canis lupus familiaris; set-up: dose 1 mg/kg, route intravenous
Mus musculus [10] = experiment: Antidiabetic activity in streptozotocin-induced ICR mouse type-2 diabetic model assessed as decrease in fasting blood glucose level at 30 mg/kg, po measured at 8 hrs by glucometer relative to vehicle-treated control; format: functional, organism-based; set-up: dose 30 mg/kg
[11] = Plasma clearance in monkey at 3 mg/kg, iv; format: ADME, organism-based, Macaca mulatta; set-up: dose 3 mg/kg, route intravenous; details: rhesus monkey
[12] = Plasma concentration in streptozotocin-induced ICR mouse type-2 diabetic model at 3 mg/kg, po measured at 8 hrs by HPLC/MS/MS analysis; format: ADME, organism-based; set-up: dose 3 mg/kg, route oral
[13] = Plasma clearance in rat at 3 mg/kg, iv; format: ADME, organism-based; set-up: dose 3 mg/kg, route intravenous
[14] = target: T1, Vasoactive intestinal polypeptide receptor 1 (Homo sapiens) (UniProt P32241); experiment: Binding affinity to VIP-1 receptor (unknown origin) at 10 uM by agonist displacement assay relative to control
T1 sequence (whole entry): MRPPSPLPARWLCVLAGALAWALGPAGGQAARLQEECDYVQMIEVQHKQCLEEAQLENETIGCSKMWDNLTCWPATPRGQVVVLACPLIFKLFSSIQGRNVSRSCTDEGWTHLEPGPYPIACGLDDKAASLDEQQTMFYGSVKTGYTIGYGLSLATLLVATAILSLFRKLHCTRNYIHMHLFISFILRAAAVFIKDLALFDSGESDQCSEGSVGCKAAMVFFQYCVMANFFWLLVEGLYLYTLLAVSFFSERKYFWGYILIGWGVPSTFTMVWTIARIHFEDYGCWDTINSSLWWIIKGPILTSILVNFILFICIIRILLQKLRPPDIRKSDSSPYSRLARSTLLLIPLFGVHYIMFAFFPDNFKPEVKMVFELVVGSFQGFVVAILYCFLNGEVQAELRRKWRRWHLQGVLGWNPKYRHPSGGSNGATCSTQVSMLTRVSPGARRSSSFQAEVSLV

[15] = Half life in monkey at 3 mg/kg, iv; format: ADME, organism-based, Macaca mulatta; set-up: dose 3 mg/kg, route intravenous; details: rhesus monkey, in vivo
Glucagon receptor [16] = target: Glucagon receptor (Mus musculus, UniProt Q61606); format: cell membranes, Liver, Membrane
Sequence of Glucagon receptor (Mus musculus, UniProt Q61606) (Q61606 whole entry): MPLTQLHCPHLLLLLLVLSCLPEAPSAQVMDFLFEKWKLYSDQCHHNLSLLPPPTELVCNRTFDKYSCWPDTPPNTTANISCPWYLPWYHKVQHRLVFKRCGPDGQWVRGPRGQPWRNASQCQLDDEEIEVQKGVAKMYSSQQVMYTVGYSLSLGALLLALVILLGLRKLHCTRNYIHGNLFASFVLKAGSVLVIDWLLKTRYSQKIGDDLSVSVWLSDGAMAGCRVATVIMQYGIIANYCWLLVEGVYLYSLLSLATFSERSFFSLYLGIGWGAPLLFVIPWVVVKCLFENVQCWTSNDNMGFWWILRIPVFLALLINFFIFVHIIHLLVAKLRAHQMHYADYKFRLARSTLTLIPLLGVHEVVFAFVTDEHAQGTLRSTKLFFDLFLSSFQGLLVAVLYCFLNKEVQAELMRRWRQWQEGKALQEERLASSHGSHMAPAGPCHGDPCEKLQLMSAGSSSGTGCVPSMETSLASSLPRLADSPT
Description: Displacement of [125I]-glucagon from GCGR in mouse liver membranes after 60 mins by scintillation counting analysis

[17] = target: T2, Type-1 angiotensin II receptor (Homo sapiens) (UniProt P30556); experiment: Binding affinity to AT1 receptor (unknown origin) at 10 uM by antagonist displacement assay relative to control
T2 sequence (whole entry): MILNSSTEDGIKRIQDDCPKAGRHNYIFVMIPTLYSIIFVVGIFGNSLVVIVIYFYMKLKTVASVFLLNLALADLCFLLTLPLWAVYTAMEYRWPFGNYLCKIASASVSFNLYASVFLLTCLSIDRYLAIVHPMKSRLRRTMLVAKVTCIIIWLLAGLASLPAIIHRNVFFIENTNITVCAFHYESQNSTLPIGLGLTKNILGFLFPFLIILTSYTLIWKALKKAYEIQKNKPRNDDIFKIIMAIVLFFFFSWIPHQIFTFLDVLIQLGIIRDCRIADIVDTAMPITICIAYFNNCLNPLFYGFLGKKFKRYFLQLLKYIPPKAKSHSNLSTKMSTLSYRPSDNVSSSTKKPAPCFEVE

Mus musculus [18] = experiment: Antidiabetic activity in diet-induced obese ICR mouse model assessed as decrease in fasting blood glucose level at 3 to 10 mg/kg, po measured at 4 hrs by glucometer; format: functional, organism-based
[19] = Plasma clearance in mouse at 3 mg/kg, iv; format: ADME, organism-based; set-up: dose 3 mg/kg, route intravenous
[20] = Oral bioavailability in rat at 3 mg/kg; format: ADME, organism-based; details: in vivo
[21] = Volume of distribution at steady state in rat at 3 mg/kg, iv; format: ADME, organism-based; set-up: dose 3 mg/kg, route intravenous; details: in vivo, read-out: Vdss
Mus musculus [22] = experiment: Toxicity in streptozotocin-induced ICR mouse type-2 diabetic model assessed as effect on body weight at 3 to 30 mg/kg, po after 24 hrs; format: organism-based; set-up: dose 3-30 mg/kg, route oral; details: in vivo
Mus musculus [23] = experiment: Antidiabetic activity in diet-induced obese ICR mouse model assessed as decrease in nonfasting blood glucose level at 3 to 10 mg/kg, po measured at 24 hrs by glucometer; format: functional, organism-based
[24] = Volume of distribution at steady state in mouse at 3 mg/kg, iv; format: ADME, organism-based; set-up: dose 3 mg/kg, route intravenous; details: in vivo, read-out: Vdss
[25] = Plasma concentration in diet-induced obese ICR mouse model at 10 mg/kg, po measured at 24 hrs by HPLC/MS/MS analysis; format: ADME, organism-based; set-up: dose 10 mg/kg, route oral
Mus musculus [26] = experiment: Dose-normalized AUC in mouse at 3 mg/kg, po; format: ADME, organism-based; set-up: dose 3 mg/kg, route oral; details: in vivo
Glucagon receptor [27] = target: Glucagon receptor (Homo sapiens, UniProt P47871); experiment: Antagonist activity at human GCGR expressed in CHO cells assessed as inhibition of glucagon-stimulated cAMP production preincubated for 30 mins followed by glucagon induction measured after 45 mins by LANCE assay; format: functional, cell-based
Sequence of Glucagon receptor (Homo sapiens, UniProt P47871) (P47871 whole entry): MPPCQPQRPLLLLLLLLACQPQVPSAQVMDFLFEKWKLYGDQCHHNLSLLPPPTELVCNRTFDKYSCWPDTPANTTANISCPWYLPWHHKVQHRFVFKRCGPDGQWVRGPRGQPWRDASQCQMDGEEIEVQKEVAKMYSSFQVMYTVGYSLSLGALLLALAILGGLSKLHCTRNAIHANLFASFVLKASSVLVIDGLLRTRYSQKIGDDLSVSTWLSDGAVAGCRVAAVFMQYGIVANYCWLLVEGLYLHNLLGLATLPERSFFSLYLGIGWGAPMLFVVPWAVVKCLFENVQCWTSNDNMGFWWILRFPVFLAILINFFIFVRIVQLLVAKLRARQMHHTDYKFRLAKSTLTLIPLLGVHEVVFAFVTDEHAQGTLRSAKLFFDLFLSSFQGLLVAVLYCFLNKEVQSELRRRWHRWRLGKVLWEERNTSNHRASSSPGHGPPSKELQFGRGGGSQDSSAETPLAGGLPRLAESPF

[28] = Plasma concentration in diet-induced obese ICR mouse model at 3 mg/kg, po measured at 24 hrs by HPLC/MS/MS analysis; format: ADME, organism-based; set-up: dose 3 mg/kg, route oral
Canis familiaris = experiment: Dose-normalized AUC in dog at 5 mg/kg, po; format: ADME, organism-based, Canis lupus familiaris; set-up: dose 5 mg/kg, route oral; details: in vivo
Adenosine receptor A3 = target: T3, Adenosine receptor A3 (Homo sapiens, UniProt P0DMS8); experiment: Binding affinity to adenosine A3 receptor (unknown origin) by agonist displacement assay
T3 sequence (P0DMS8 whole entry): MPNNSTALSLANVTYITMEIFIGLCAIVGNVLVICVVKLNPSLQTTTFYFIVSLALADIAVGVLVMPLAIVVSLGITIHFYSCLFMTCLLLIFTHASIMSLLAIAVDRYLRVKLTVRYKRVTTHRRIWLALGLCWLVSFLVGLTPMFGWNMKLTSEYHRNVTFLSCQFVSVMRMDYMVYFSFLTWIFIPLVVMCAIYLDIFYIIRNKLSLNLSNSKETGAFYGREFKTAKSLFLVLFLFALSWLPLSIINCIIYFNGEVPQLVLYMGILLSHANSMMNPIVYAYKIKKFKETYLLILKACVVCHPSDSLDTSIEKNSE

[29] = Oral bioavailability in dog at 5 mg/kg; format: ADME, organism-based, Canis lupus familiaris; details: in vivo
[30] = Volume of distribution at steady state in dog at 1 mg/kg, iv; format: ADME, organism-based, Canis lupus familiaris; set-up: dose 1 mg/kg, route intravenous; details: in vivo, read-out: Vdss

CC(C)(C)CC[C@H](c1ccc(C(=O)NCc2nn[nH]n2)cc1)N1C(=O)C(c2cc(Cl)cc(Cl)c2)=N[C@]12CC[C@@H](C(C)(C)C)CC2
AUC/dose (Rhesus monkey): 22 µM·h/mg/kg | Vd [1]: 0.4 L/kg | half-life [2]: 8.3 h | half-life [3]: 11 h | bioavailability [4]: 31% | inhibition (Mus musculus [5]): Active | concentration at 8 h [6]: 4500 nM | bioavailability [7]: 49% | IC50 [8]: > 10000 nM | clearance [9]: 0.3 mL/min/kg | Activity (Mus musculus [10]): Active | clearance [11]: 0.6 mL/min/kg | concentration at 8 h [12]: 1100 nM | clearance [13]: 1.8 mL/min/kg | inhibition [14]: 75% | half-life [15]: 7.9 h | IC50 (Glucagon receptor [16]): 130 nM | inhibition [17]: 93% | Activity (Mus musculus [18]): Active | clearance [19]: 1.4 mL/min/kg | bioavailability [20]: 15% | Vd [21]: 1.3 L/kg | Activity (Mus musculus [22]): Non-toxic | Activity (Mus musculus [23]): Active | Vd [24]: 1.3 L/kg | concentration at 24 h [25]: 810 nM | AUC/dose (Mus musculus [26]): 6 µM·h/mg/kg | IC50 (Glucagon receptor [27]): 46 nM | concentration at 24 h [28]: 430 nM | AUC/dose (Canis familiaris): 30 µM·h/mg/kg | Ki (Adenosine receptor A3): 2430 nM | bioavailability [29]: 32% | Vd [30]: 0.1 L/kg
